Data published in patent US20090176887A1, “Biocidal Compositions and Methods” (priority 2006, published 2009).

Key:
Test in all cases: Broth dilution method for determining MIC
Conditions in all cases: pH adjusted to about 7, blend as ascorbic acid:ADBAC/DDAC
[1] = tested on: S. aureus; format: cell-based, Staphylococcus aureus
Description: (§1) The synergistic activities of different components in a composition (control, conventional comparative, or of the present technology) is determined by the method described by Kull et al. in […], Vol. 9, pages 538-541 (1961), which uses a synergy index to indicates whether synergy exists. A synergy index less than one (<1) indicates synergy; a synergy index of one (1) indicates additivity; a synergy index greater than one (>1) indicates antagonism.
(§2) When applied to Example 1 below, the synergy index of L-ascorbic acid and ADBAC/DDAC can be determined by the following equation:
(§3) Synergy Index=Qa/QA+Qb/QB, […]
(§4) The Minimum Inhibitory Concentration (MIC) of a chemical against a certain bacterium is determined according to the broth dilution method described in National Committee for Clinical Laboratory Standards entitled, “Methods for Dilution Antimicrobial Susceptibility Test for Bacteria that Grow Aerobically” document M7-A2, 2nd ed., 10:8, 1990. […]
(§5) In this example, standard MIC values of ascorbic acid, ADBAC/DDAC, and a 1:1 blend of ascorbic acid and ADBAC/DDAC were determined against E coli, S. aureus, and P. aeruginosa according to the broth dilution method introduced above. […] The synergy index of the 1:1 blend of ascorbic acid and ADBAC/DDAC against each of the biocidal targets was then calculated according to the method as described above.

[2] = tested on: P. aeruginosa; format: cell-based, Pseudomonas aeruginosa
Description: as §1, §2, §3, §4, §5

[3] = tested on: E coli; format: cell-based, Escherichia coli
Description: as §1, §2, §3, §4, §5

Measured: MIC

O=C1O[C@H]([C@@H](O)CO)C(O)=C1O [L-Ascorbic Acid]
>10,000 ppm, active: all assays above
